Marks after values point to notes of the source that are not given here.
Columns and labels:
[1] = system: MCF-7H cells; test: 7-day in vitro proliferation assay in tamoxifen-resistant MCF-7H breast cancer cells (methyl-3H-thymidine incorporation); type: cell-based, human; conditions: for Efficacy (fractional to E2): fraction of maximal response, E2 = 1.00 per definition; for Efficacy (fractional to E2) / % E2: MCF-7H; for % E2: relative potency to induce proliferation, normalized against E2 (=100 per definition); for induce proliferation of MCF-7H breast cancer cells: potency range and efficacy in words
Method: To what extent compounds are capable of stimulating proliferation in ER-positive, tamoxifen-resistant breast cancer cells is tested in a 7-day in vitro proliferation assay using MCF-7H cells. More specifically, this in vitro bioassay is used to determine the efficacy (fraction of maximal response), pEC50, and relative potency of the compound to induce proliferation by comparing the data for this compound with those of the reference compound 17β-estradiol (E2) in the same test.
(§1) A more detailed description of the method used is as follows.
Cell culture: The human epithelial breast cancer cell line MCF-7H (origin: Hubrecht Laboratory, Utrecht, The Netherlands) was routinely maintained in complete medium which is a 1:1 mixture of Ham's F12 medium and Dulbecco's Modified Eagle Medium (DMEM; Invitrogen, Carlsbad, USA) without phenol red and enriched with 5% fetal calf serum (FCS; Hyclone, Utah, USA), 100 μg/ml streptomycin and 100 units/ml penicillin adapted to contain:
Cells were grown in 80 cm^2 culture flasks (Nunc, Roskilde, Denmark) and kept in an atmosphere of 5% CO2-95% air at 37 degrees Celsius. Cells were subcultured when they reached about 80-90% confluence, resulting in one passage a week. Subculturing includes detaching the cells using trypsin/EDTA and diluting the cell suspension 10 times.
Methyl-^3H-thymidine incorporation assay: MCF-7H cells were starved overnight in assay medium containing 5% charcoal-treated (CT) bovine calf serum (BCS; Hyclone) instead of FCS and a final concentration of 1.0 μg/ml bovine insulin, the day before plating. Cells were plated in assay medium containing 5% CT BCS, in white 24-wells plates (Perkin Elmer, Shelton, USA), at a density of 7.5×10^3 cells per well, each well containing 630 μL assay medium. Cells were allowed to attach and spread for 24 h before stimulation with reference and/or test compound(s). After a stimulation period of 7 days, 0.25 μCi/well of methyl-^3H-thymidine (GE Healthcare Limited, Buckinghamshire, UK) was added per well. Cultures were maintained in an atmosphere of 5% CO2-95% air at 37 degrees Celsius. After overnight incubation, excess methyl-^3H-thymidine was aspirated and the cells were washed with phosphate-buffered saline (PBS). After 1 h of incubation with 1 ml scintillation fluid Microscint-20 (Perkin Elmer), radioactivity was measured in a Packard TOP-count NXT microplate scintillation counter (Perkin Elmer).

[2] = target: T1, estrogen receptor alpha (Homo sapiens, UniProt P03372); test: ERα downregulation assay in T47D breast cancer cells (ERα ELISA); type: cell-based; conditions: 24 hours; for DR (%): downregulation of ERα relative to fulvestrant (100%), 1E-5 M, negative = upregulation
T1 construct: endogenous in cells; host or cells: T47D human breast cancer cells (ATCC)
T1 sequence (P03372 1-595): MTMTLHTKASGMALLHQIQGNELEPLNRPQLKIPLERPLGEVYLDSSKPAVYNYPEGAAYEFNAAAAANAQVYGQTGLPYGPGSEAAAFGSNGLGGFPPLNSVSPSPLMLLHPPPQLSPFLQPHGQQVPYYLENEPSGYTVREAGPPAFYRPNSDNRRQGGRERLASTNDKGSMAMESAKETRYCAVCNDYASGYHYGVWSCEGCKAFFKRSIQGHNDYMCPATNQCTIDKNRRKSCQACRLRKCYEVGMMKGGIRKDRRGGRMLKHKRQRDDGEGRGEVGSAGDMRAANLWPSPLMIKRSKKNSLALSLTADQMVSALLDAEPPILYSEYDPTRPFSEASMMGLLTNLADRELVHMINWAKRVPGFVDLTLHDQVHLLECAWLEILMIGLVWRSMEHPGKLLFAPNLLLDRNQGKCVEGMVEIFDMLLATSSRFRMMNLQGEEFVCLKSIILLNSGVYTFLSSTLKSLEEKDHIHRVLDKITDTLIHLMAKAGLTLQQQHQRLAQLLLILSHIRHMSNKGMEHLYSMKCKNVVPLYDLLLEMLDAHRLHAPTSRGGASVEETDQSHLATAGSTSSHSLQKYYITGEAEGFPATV
From the text: More specifically, this in vitro bioassay is used to determine the efficacy (fraction of maximal response) of the compound by comparing the data for this compound with those of the reference compound ICI 182,780 (fulvestrant) in the same test (downregulation of fulvestrant is 100% by definition).
as §1
Cell culture. The human epithelial breast cancer cell line T47D (origin: ATCC) was routinely maintained in a 1:1 mixture of Ham's F12 medium and Dulbecco's Modified Eagle Medium (Gibco) enriched with 5% fetal calf serum (Hyclone), 10 mM HEPES pH 7.5 and 100 μg/ml penicillin-streptomycin solution. Cells were grown in 80 cm2 culture flasks (Nunc, Roskilde, Denmark) and kept in an atmosphere of 5% CO2-95% air at 37 degrees Celsius. Cells were subcultured when they reached about 80-90% confluence, resulting in one passage a week. Subculturing includes detaching the cells using Cell Dissociation Buffer [Sigma] and subsequent inoculation at 1:5 or 1:10 in a new Roux flask (175 cc) and\or plating out in Nunclon™ Surface 96 wells microplates. The culture medium needs to be refreshed on day three or four of the incubation, if applicable.
Determination of ERα protein levels: T47D cells in the microplates are incubated with 1E-5 M test compound for 24 hours. The supernatant in all wells is carefully aspirated. Cells are lysed on the microplate and cell lysates are probed for ERα content using an ERα ELISA assay kit (Active Motif).

[3] = target: T2, human estrogen receptor α (hERα) (Homo sapiens, UniProt P03372); test: antagonistic activity in CHO cells co-transfected with hERα, rat oxytocin promoter and luciferase reporter gene; type: cell-based; conditions: antagonism of 17β-estradiol-induced transactivation, CHO-hERα-RO-LUC; read-out: ERα pIC50 (converted)
T2 sequence (P03372 1-595): T1 sequence (P03372 1-595)
How it was run: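 Recombinant CHO cells stably carrying hERα, rat oxytocin promoter and luciferase reporter, with receptor activated by 17β-estradiol. Antagonist efficacy given as maximal inhibition relative to that of the reference anti-estrogen ICI 164,384.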

IC50 [3]	DR (%) [2]	SMILES	Efficacy (fractional to E2) [1]	% E2 [1]	other results
0.794 nM	30%	Cl.O=C(c1ccc(OC2CN(C3CCC3)C2)cc1)c1c(-c2ccc(O)cc2)sc2cc(O)ccc12 [compound 7l, (4-(1-cyclobutylazetidin-3-yloxy)phenyl)(6-hydroxy-2-(4-hydroxyphenyl)-benzo[b]thiophen-3-yl)methanone hydrochloride]	–	–	–
1 nM	73%	CC(C)CN1CC(Oc2ccc(C(=O)c3c(-c4ccc(O)cc4)sc4cc(O)ccc34)cc2)C1.Cl [compound 7m, (6-hydroxy-2-(4-hydroxyphenyl)benzo[b]thiophen-3-yl)(4-(1-isobutylazetidin-3-yloxy)phenyl)methanone hydrochloride]	–	–	–
1.26 nM	77%	Cl.O=C(c1ccc(OC2CN(CC3CCC3)C2)cc1)c1c(-c2ccc(O)cc2)sc2cc(O)ccc12 [compound 7n, (4-(1-(cyclobutylmethyl)azetidin-3-yloxy)phenyl)(6-hydroxy-2-(4-hydroxyphenyl)benzo[b]thiophen-3-yl)methanone hydrochloride]	–	–	–
5.01 nM	73%	Cl.O=C(c1ccc(OC2CN(CC3CCOC3)C2)cc1)c1c(-c2ccc(O)cc2)sc2cc(O)ccc12 (centres unmarked) [compound 7o, (6-hydroxy-2-(4-hydroxyphenyl)benzo[b]thiophen-3-yl)(4-(1-((tetrahydrofuran-3-yl)methyl)azetidin-3-yloxy)phenyl)methanone hydrochloride]	–	–	–
5.01 nM	35%	Cl.O=C(c1ccc(OC2CN(CCC(F)(F)F)C2)cc1)c1c(-c2ccc(O)cc2)sc2cc(O)ccc12 [compound 7p, (6-hydroxy-2-(4-hydroxyphenyl)benzo[b]thiophen-3-yl)(4-(1-(3,3,3-trifluoropropyl)azetidin-3-yloxy)phenyl)methanone hydrochloride]	–	–	–
1.26 nM	64%	CCCN1CC(Oc2ccc(C(=O)c3c(-c4ccc(O)cc4C)sc4cc(O)ccc34)cc2)C1.Cl [compound 7q, (6-hydroxy-2-(4-hydroxy-2-methylphenyl)benzo[b]thiophen-3-yl)(4-(1-propylazetidin-3-yloxy)phenyl)methanone hydrochloride]	–	–	–
2 nM	94%	CCCN1CC(Oc2ccc(C(=O)c3c(-c4ccc(O)c(C)c4)sc4cc(O)ccc34)cc2)C1.Cl [compound 7r, (6-hydroxy-2-(4-hydroxy-3-methylphenyl)benzo[b]thiophen-3-yl)(4-(1-propylazetidin-3-yloxy)phenyl)methanone hydrochloride]	–	–	–
5.01 nM	101%	CCCN1CC(Oc2ccc(C(=O)c3c(-c4ccc(F)c(C)c4)sc4cc(O)ccc34)cc2)C1.Cl [compound 7s, (2-(4-fluoro-3-methylphenyl)-6-hydroxybenzo[b]thiophen-3-yl)(4-(1-propylazetidin-3-yloxy)phenyl)methanone hydrochloride]	–	–	–
2 nM	98%	CCCN1CC(Oc2ccc(C(=O)c3c(-c4cc(F)cc(F)c4)sc4cc(O)ccc34)cc2)C1.Cl [compound 7t, (2-(3,5-difluorophenyl)-6-hydroxybenzo[b]thiophen-3-yl)(4-(1-propylazetidin-3-yloxy)phenyl)methanone hydrochloride]	–	–	–
0.794 nM	78%	CCCN1CC(Oc2ccc(C(=O)c3c(-c4ccc(O)cc4)sc4cc(O)ccc34)cc2F)C1.Cl [compound 7u, (3-fluoro-4-(1-propylazetidin-3-yloxy)phenyl)(6-hydroxy-2-(4-hydroxyphenyl)-benzo[b]thiophen-3-yl)methanone hydrochloride]	–	–	–
0.501 nM	66%	Cl.Oc1ccc(-c2onc(-c3ccccc3Cl)c2-c2ccc(OC3CN(CC4CCOC4)C3)cc2)cc1 (centres unmarked) [compound 7x, 4-(3-(2-chlorophenyl)-4-(4-(1-((tetrahydrofuran-3-yl)methyl)azetidin-3-yloxy)-phenyl)isoxazol-5-yl)phenol hydrochloride]	–	–	–

More lines, now with the values behind:

SMILES	IC50 [3]	DR (%) [2]	Efficacy (fractional to E2) [1]	% E2 [1]	other results
CC/C(=C(\c1ccc(O)cc1)c1ccc(OCCN(C)C)cc1)c1ccccc1 [4OHT, 4-OH-tamoxifen]	–	–	0.49	2.3%	–
COc1ccc(-c2sc3cc(O)ccc3c2Oc2ccc(OCCN3CCCCC3)cc2)cc1 [Arzoxifene]	–	–	0.34	99.1%	–
CC/C(=C(/c1ccc(OCCN(C)C)cc1)c1cccc(O)c1)c1ccccc1 [Droloxifene]	–	–	0.38	5.9%	–
C[C@]12CC[C@@H]3c4ccc(O)cc4CC[C@H]3[C@@H]1CC[C@@H]2O [E2, 17β-estradiol]	–	–	1.00 ^a	100 ^a %	induce proliferation of MCF-7H breast cancer cells [1]: in the picomolar range and with full efficacy
C#C[C@]1(O)CC[C@H]2[C@@H]3CCc4cc(O)ccc4[C@H]3CC[C@@]21C [EE, Ethynyl Estradiol]	–	–	0.99	137%	induce proliferation of MCF-7H breast cancer cells [1]: in the picomolar range and with full efficacy
C[C@]12CC[C@@H]3c4ccc(O)cc4C[C@@H](CCCCCCCCC[S+]([O-])CCCC(F)(F)C(F)(F)F)[C@H]3[C@@H]1CC[C@@H]2O (some centres unmarked) [Fulvestrant]	–	–	0.02	18.9%	Downregulation (% of fulvestrant) ([2]; 1E-5 M test compound, fulvestrant = 100 per definition, negative number = upregulation or stabilization): 100 ^a %
O=C(c1ccc(OCCN2CCCCC2)cc1)c1c(-c2ccc(O)cc2)sc2cc(O)ccc12 [Raloxifene]	–	–	0.33	21.1%	–
CC/C(=C(\c1ccccc1)c1ccc(OCCN(C)C)cc1)c1ccccc1 [Tamoxifen]	–	–	0.58	0.008%	–
CCCN1CC(Oc2ccc(-c3c(-c4ccc(O)cc4)sc4cc(O)ccc34)cc2)C1.O=C(O)C(F)(F)F [compound 6b, 2-(4-hydroxyphenyl)-3-(4-(1-propylazetidin-3-yloxy)phenyl)benzo[b]thiophen-6-ol 2,2,2-trifluoroacetate]	0.794 nM	53%	–	–	Emax ([1]; Homo sapiens, MCF7, 168 h, efficacy (fraction of maximal response relative to E2) in MCF-7H proliferation, read-out: MCF7 ia): 10%

Reference: patent US9540361B2, “N-substituted azetidine derivatives” (Merck Sharp & Dohme B.V., priority 2010, dated 2017)
